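Protocol summary: plate cells (96-well), add compound at 5 concentrations, incubate 48 h, interpolate endpoints linearly. At the GI50, growth is halved. The concentration for full growth arrest is given as TGI.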
Columns and labels:
Test in all cases: NCI anticancer screen, dose series, 48 h
RXF 393 renal = system: RXF 393 renal
TK-10 renal = system: TK-10 renal
A549 NSCLC = system: A549 NSCLC
IGROV1 ovarian = system: IGROV1 ovarian
RPMI-8226 leukemia = system: RPMI-8226 leukemia
LOX IMVI melanoma = system: LOX IMVI melanoma
A498 renal = system: A498 renal
MDA-MB-435 = system: MDA-MB-435
MDA-MB-231 breast = system: MDA-MB-231 breast
HT29 colon = system: HT29 colon

## O=S(=O)([O-])c1ccc(N=Cc2ccccc2[O-])cc1.O=S(=O)([O-])c1ccc(N=Cc2ccccc2[O-])cc1.[Co+2]
RXF 393 renal
  GI50: > 100 µM
  TGI: > 100 µM
TK-10 renal
  GI50: > 100 µM
  TGI: > 100 µM
A549 NSCLC
  GI50: > 100 µM
  TGI: > 100 µM
IGROV1 ovarian
  GI50: > 100 µM
  TGI: > 100 µM
RPMI-8226 leukemia
  GI50: 96.8 µM
  TGI: > 100 µM

## CCN1CCC(Nc2ccnc3cc(Cl)ccc23)CC1
LOX IMVI melanoma
  GI50: 26.1 µM
  TGI: > 100 µM
A498 renal
  GI50: 74.6 µM
  TGI: > 100 µM
RXF 393 renal
  GI50: 32.9 µM
  TGI: > 100 µM
MDA-MB-435
  GI50: 17.8 µM
  TGI: 55.5 µM
A549 NSCLC
  GI50: 33.9 µM
  TGI: > 100 µM
IGROV1 ovarian
  GI50: 11.7 µM
  TGI: > 100 µM
MDA-MB-231 breast
  GI50: 19.7 µM
  TGI: > 100 µM
RPMI-8226 leukemia
  GI50: 25.9 µM
  TGI: 78.3 µM

## CN1CN(C2OC(CO)C(O)C2O)c2nc(N)[nH]c(=O)c21 (stereo unspecified)
A498 renal
  TGI: > 100 µM
RXF 393 renal
  TGI: > 100 µM
TK-10 renal
  TGI: > 100 µM
HT29 colon
  TGI: > 100 µM
A549 NSCLC
  TGI: > 100 µM
IGROV1 ovarian
  TGI: > 100 µM
RPMI-8226 leukemia
  TGI: > 100 µM

## COc1cccc(/C=C/C(=O)c2ccc(SC)cc2)c1OC
A498 renal
  GI50: 11.3 µM
  TGI: 23.8 µM
RXF 393 renal
  GI50: 3.9 µM
  TGI: 11.7 µM
TK-10 renal
  GI50: 22.5 µM
  TGI: 49.5 µM
HT29 colon
  GI50: 9.97 µM
  TGI: 48.8 µM
MDA-MB-435
  GI50: 17.8 µM
  TGI: 35.3 µM
A549 NSCLC
  GI50: 12.1 µM
  TGI: 25.5 µM
MDA-MB-231 breast
  GI50: 17.3 µM
  TGI: 36.4 µM
RPMI-8226 leukemia
  GI50: 5.6 µM
  TGI: > 100 µM

## C=C(CO)CC(O)c1cc(OC)ccc1OC (stereo unspecified)
LOX IMVI melanoma
  TGI: > 100 µM
RXF 393 renal
  TGI: > 100 µM
TK-10 renal
  TGI: > 100 µM
HT29 colon
  TGI: > 100 µM
A549 NSCLC
  TGI: > 100 µM
IGROV1 ovarian
  TGI: > 100 µM
RPMI-8226 leukemia
  TGI: > 100 µM

## NC(N)=NCC1CCCCCCN1 (stereo unspecified)
A498 renal
  TGI: > 100 µM
RXF 393 renal
  TGI: > 100 µM
TK-10 renal
  TGI: > 100 µM
HT29 colon
  TGI: > 100 µM
MDA-MB-435
  TGI: > 100 µM
A549 NSCLC
  TGI: > 100 µM
IGROV1 ovarian
  TGI: > 100 µM
MDA-MB-231 breast
  TGI: > 100 µM
RPMI-8226 leukemia
  TGI: > 100 µM

## COC(=O)C1=C(O)[C@H](C(=O)OC)C2(O)C(C(=O)OC)[C@H](c3ccc(OC(=O)C(C)c4ccccc4)cc3)C[C@@H]1[C@@H]2C(=O)OC (stereo partly specified)
LOX IMVI melanoma
  GI50: 6.85 µM
  TGI: 16.2 µM
RXF 393 renal
  GI50: 13.7 µM
  TGI: > 50 µM
TK-10 renal
  GI50: 48.6 µM
  TGI: > 50 µM
MDA-MB-435
  GI50: 10.4 µM
  TGI: 25.1 µM
A549 NSCLC
  GI50: 19.4 µM
  TGI: > 50 µM
IGROV1 ovarian
  GI50: 26.7 µM
  TGI: > 50 µM
MDA-MB-231 breast
  GI50: 19.5 µM
  TGI: > 50 µM
RPMI-8226 leukemia
  GI50: 18.8 µM
  TGI: > 50 µM

## Oc1ccc(O)c(-c2cn3c(n2)SCC3)c1
LOX IMVI melanoma
  GI50: 17.5 µM
  TGI: 31.5 µM
A498 renal
  GI50: 20.9 µM
  TGI: 75.7 µM
RXF 393 renal
  GI50: 18.4 µM
  TGI: 36.2 µM
TK-10 renal
  GI50: 21.3 µM
  TGI: 37.3 µM
MDA-MB-435
  GI50: 15.8 µM
  TGI: 35.2 µM
A549 NSCLC
  GI50: 47.5 µM
  TGI: > 100 µM
IGROV1 ovarian
  GI50: 39.9 µM
  TGI: > 100 µM
MDA-MB-231 breast
  GI50: 11.7 µM
  TGI: 26.5 µM
RPMI-8226 leukemia
  GI50: 4.08 µM
  TGI: > 100 µM

## CO[C@@H]1C=C[C@@]23c4cc5c(cc4CN(C[C@@H]2O)[C@H]3C1)OCO5
LOX IMVI melanoma
  TGI: 80.9 µM
RXF 393 renal
  TGI: > 100 µM
TK-10 renal
  TGI: > 100 µM
HT29 colon
  TGI: > 100 µM
A549 NSCLC
  TGI: > 100 µM
IGROV1 ovarian
  TGI: > 100 µM
RPMI-8226 leukemia
  TGI: > 100 µM

## N#CC(/C(CCC(=O)Nc1ccc(Cl)cc1)=N/NC(=O)c1cc2ccccc2cc1O)c1ccccc1 (stereo unspecified)
LOX IMVI melanoma
  TGI: 73.1 µM
RXF 393 renal
  TGI: > 100 µM
TK-10 renal
  TGI: > 100 µM
HT29 colon
  TGI: > 100 µM
A549 NSCLC
  TGI: > 100 µM
IGROV1 ovarian
  TGI: > 100 µM
RPMI-8226 leukemia
  TGI: > 100 µM

## CCOC(=O)C1SC(=Nc2ccc(OC)c(OC)c2)N=C1C (stereo unspecified)
LOX IMVI melanoma
  TGI: > 100 µM
A498 renal
  TGI: > 100 µM
RXF 393 renal
  TGI: > 100 µM
TK-10 renal
  TGI: > 100 µM
HT29 colon
  TGI: 34.8 µM
A549 NSCLC
  TGI: > 100 µM
IGROV1 ovarian
  TGI: > 100 µM

## O=C/C1=C/C2=Cc3ccccc3C=C(/C=C(/C=O)C1)C2
LOX IMVI melanoma
  TGI: > 100 µM
A498 renal
  TGI: > 100 µM
RXF 393 renal
  TGI: 88.6 µM
TK-10 renal
  TGI: > 100 µM
HT29 colon
  TGI: > 100 µM
A549 NSCLC
  TGI: > 100 µM
IGROV1 ovarian
  TGI: > 100 µM
RPMI-8226 leukemia
  TGI: > 100 µM

## Cc1c(O)c(N=Nc2nc3ccccc3s2)c2ccccc2c1O
LOX IMVI melanoma
  GI50: 29.7 µM
  TGI: > 50 µM
RXF 393 renal
  GI50: 12.5 µM
  TGI: 39.7 µM
TK-10 renal
  GI50: > 50 µM
  TGI: > 50 µM
MDA-MB-435
  GI50: 19.8 µM
  TGI: > 50 µM
A549 NSCLC
  GI50: 19.8 µM
  TGI: > 50 µM
IGROV1 ovarian
  GI50: 17.6 µM
  TGI: > 50 µM
MDA-MB-231 breast
  GI50: 26.5 µM
  TGI: > 50 µM
RPMI-8226 leukemia
  GI50: 23.6 µM
  TGI: > 50 µM

## COC(OC)c1cc2c(cc1C=O)OCO2
RXF 393 renal
  TGI: > 100 µM
TK-10 renal
  TGI: > 100 µM
HT29 colon
  TGI: > 100 µM
A549 NSCLC
  TGI: > 100 µM
IGROV1 ovarian
  TGI: > 100 µM

## O=C1C(=O)N(c2ccc(Cl)cc2)C(=O)C(=O)C1c1nc2ccccc2o1
LOX IMVI melanoma
  TGI: > 100 µM
A498 renal
  TGI: > 100 µM
RXF 393 renal
  TGI: > 100 µM
TK-10 renal
  TGI: > 100 µM
HT29 colon
  TGI: > 100 µM
A549 NSCLC
  TGI: > 100 µM
IGROV1 ovarian
  TGI: > 100 µM
RPMI-8226 leukemia
  TGI: > 100 µM

## CSc1c(C2=C(c3cn(C)c4ccccc34)C(=O)NC2=O)c2ccccc2n1C
LOX IMVI melanoma
  GI50: 1.54 µM
  TGI: > 25 µM
A498 renal
  GI50: 0.376 µM
  TGI: 2.11 µM
RXF 393 renal
  GI50: 0.273 µM
  TGI: 1.4 µM
TK-10 renal
  GI50: 0.606 µM
  TGI: > 25 µM
HT29 colon
  GI50: 0.814 µM
  TGI: > 25 µM
A549 NSCLC
  GI50: 1.14 µM
  TGI: > 25 µM
IGROV1 ovarian
  GI50: 1.39 µM
  TGI: > 25 µM
MDA-MB-231 breast
  GI50: 2.57 µM
  TGI: > 25 µM
RPMI-8226 leukemia
  GI50: 0.813 µM
  TGI: > 7.04 µM

## NC(=NCc1ccccc1)C(N=Nc1ccccc1)C(=O)NCc1ccccc1 (stereo unspecified)
LOX IMVI melanoma
  GI50: 8.36 µM
  TGI: 24.3 µM
A498 renal
  GI50: 6.17 µM
  TGI: 23 µM
RXF 393 renal
  GI50: 12.9 µM
  TGI: 27 µM
MDA-MB-435
  GI50: 5.51 µM
  TGI: 25.5 µM
A549 NSCLC
  GI50: 3.05 µM
  TGI: 10.1 µM
IGROV1 ovarian
  GI50: 3.42 µM
  TGI: 19.8 µM
MDA-MB-231 breast
  GI50: 14.4 µM
  TGI: 35.2 µM
RPMI-8226 leukemia
  GI50: 9.31 µM
  TGI: > 100 µM

## CC(C)N(O)C(=N)c1ccccc1
LOX IMVI melanoma
  TGI: > 100 µM
RXF 393 renal
  TGI: > 100 µM
TK-10 renal
  TGI: > 100 µM
HT29 colon
  TGI: > 100 µM
A549 NSCLC
  TGI: > 100 µM

## Cc1nc2c(c(N3CCCc4ccccc43)n1)CCC2
LOX IMVI melanoma
  GI50: < 0.01 µM
  TGI: > 100 µM
A498 renal
  GI50: < 0.01 µM
TK-10 renal
  GI50: 1.62 µM
  TGI: > 100 µM
HT29 colon
  GI50: < 0.01 µM
  TGI: 0.0131 µM
A549 NSCLC
  GI50: < 0.01 µM
  TGI: > 100 µM
IGROV1 ovarian
  GI50: 0.0249 µM
  TGI: > 100 µM
MDA-MB-231 breast
  GI50: 0.0137 µM
  TGI: > 100 µM
RPMI-8226 leukemia
  GI50: < 0.01 µM
  TGI: 3.47 µM

Source: PubChem BioAssay (NCI)
